We go through three compounds from PMC9401491, “The Novel Nucleoside Analogue ProTide NUC-7738 Overcomes Cancer Resistance Mechanisms In Vitro and in a First-In-Human Phase I Clinical Trial” (Clinical Cancer Research, 2021).

Molecules are shown by their SMILES. Where two headings read alike, the source gives them in different places.

For one data set, the system named is cancer cell lines. The data set can be described thus: IC50 across a wide set of cancer cell lines. It counts as cell-based. The conditions noted are these: mean across a wide set of cancer cell lines; read-out: mean IC50. The method, then:
(§1) Cells (10^4) were seeded into 96-well plates and then treated with NUC-7738 (lot 5132/E00393/119) or 3′-dA (cordycepin, catalog no. C3394, lot 067M4182, Sigma) for 48 hours. One and a half milligrams per milliliter MTT (catalog no. M6494, Invitrogen) in a 1:1 ratio was added to cell culture media. After a 2-hour incubation at 37°C, media was removed and 70 μl of isopropanol was added. Optical densities at 570 nm were measured using POLARstar Omega plate reader. Readouts were normalized and IC50 values were calculated using a nonlinear regression model in Graphpad prism (v8.3.0). Each biological replicate (at least 3) was performed in 4 technical replicates to calculate the average IC50 value. To measure apoptosis, the Guava NexinReagent (Luminex Corp.) was used following manufacturer's instructions. Fluorescence staining was measured with an automated 96-well Guava easyCyte Flow Cytometer (Luminex Corp.).

The next data set has as its system Tera-1. The data set can be described thus: MTT cell viability, Tera-1. The note with it: Tera-1, 48 hours; mean (±SEM); read-out: IC50. It counts as cell-based. The method, then: as §1
Data set [1] deals with Gastric or cervical cancer cells. The data set can be described thus: Apoptosis by cleaved PARP Western blot. It counts as cell-based. The conditions noted are these: 50 and 100 μmol/L, 24 hours. As to the method: as §1
Cells were harvested and lyzed using RIPA lysis and extraction buffer (Thermo Scientific) following manufacturer's protocol. Twenty to 30 μg of total protein lysates was loaded on Mini-PROTEAN TGX precast gels (Bio-Rad). Separated proteins were transferred to a polyvinylidene difluoride (PVDF) membrane using Trans-Blot Turbo Transfer System (Bio-Rad) followed by incubation with primary and horseradish peroxidase (HRP)–conjugated secondary antibodies [anti-mouse, catalog no. […]
(In general: A western blot detects proteins with antibodies after separation by electrophoresis.)

In a further data set the test system is SK-OV3. The data set can be described thus: MTT cell viability, SK-OV3. It counts as cell-based. The conditions noted are these: Homo sapiens, SK-OV-3; SK-OV3, 48 hours; 2 biological replicates; read-out: IC50. The method, then: as §1
Another data set concerns AGS. The data set can be described thus: MTT cell viability, AGS. It counts as cell-based. The note with it: Homo sapiens, 48 hours, mean (±SEM), read-out: IC50. The method, then:
as §1

The next data set deals with CAKI-1. The data set is described as follows: MTT cell viability, CAKI-1. The conditions noted are these: Homo sapiens; CAKI-1, 48 hours; mean (±SEM); read-out: IC50. It counts as cell-based. The method, then: as §1
Data set [2] concerns NUDT2 knockout HAP1 cells. The data set can be described thus: Sensitivity of NUDT2 CRISPR/Cas9 knockout HAP1 cells. It counts as cell-based, human. The note with it: HAP1 NUDT2 knockout vs wildtype. As to the method: Cells were transfected with stealth siRNA (catalog no. HSS104782, catalog no. HSS104784, catalog no. HSS179235; ThermoFisher) targeting HINT-1 using Lipofectamine RNAiMAX (Invitrogen) following the manufacturer's protocol. At 48 hours posttransfection, cells were treated and cell viability was measured 96 hours posttransfection as described above. Samples for Western blot analysis were harvested 48 hours posttransfection. For gene-depletion experiments, approximately 4 × 10^5 HAP1 cells were seeded per well in a 6-well plate and grown to approximately 50% confluency. After 24 hours, cells were transfected with lentiCRISPR v2 plasmid (GenScript) containing a guide RNA (gRNA) targeting gene of interest using Turbofectin (catalog no. TF81001, OriGene) according to manufacturer's instruction. The following sequences were used: HINT-1 CRISPR gRNA 2 ([…]) and NUDT2 CRISPR gRNA 2 ([…]). At 24 hours posttransfection, positively transfected cells were selected using […] puromycin for 72 hours. After selection, surviving colonies were expanded and used for downstream analysis. For clonal selection, clones were selected using limited dilution and expanded into a 6-well plate for Western blot screening.

For the next data set, the system named is ACHN. The data set can be described thus: MTT cell viability, ACHN. It counts as cell-based. The conditions noted are these: Homo sapiens, 48 hours, mean (±SEM), read-out: IC50. As to the method:
as §1

For data set [3], the system named is HAP1 cells. The data set can be described thus: HAP1 viability with ADA, hENT1 or ADK inhibitors. It counts as cell-based, human. The note with it: HAP1, EHNA, NBTI, A134974. The method, then:
as §1
To assess whether NUC-7738 was resistant to ADA and could bypass ADK and hENT1 (SLC29A1), cell viability was measured after treatment with their specific and corresponding protein inhibitors: erythro-9-(2-Hydroxy-3-nonyl) adenine hydrochloride (EHNA), A134974, and S-(4-nitrobenzyl)-6-thioinosine (NBTI), respectively ([16, 17, 34, 35]).

The next data set deals with UO-31. The data set can be described thus: MTT cell viability, UO-31. It counts as cell-based. The note with it: Homo sapiens; UO-31, 48 hours; mean (±SEM); read-out: IC50. As to the method:
as §1

Another data set concerns A498. The data set can be described thus: MTT cell viability, A498. The note with it: Homo sapiens; A498, 48 hours; mean (±SEM); read-out: IC50. It counts as cell-based. The method, then:
as §1

Details of data set [4]: method as in PMID 20302371. The conditions noted are these: cited from earlier work.
Data set [5] deals with HAP1 cells. The data set is described as follows: MTT cell viability, HAP1 cells. It counts as cell-based. The conditions noted are these: Homo sapiens. The method, then:
as §1

The test system of the next data set is NCI-786. The data set is described as follows: MTT cell viability, NCI-786. It counts as cell-based. The note with it: NCI-786, 48 hours; mean (±SEM); read-out: IC50. The method, then: as §1
A further data set has as its system 501MEL. The data set is described as follows: MTT cell viability, 501MEL. The conditions noted are these: 501MEL, 48 hours; mean (±SEM); read-out: IC50. It counts as cell-based. The method, then:
as §1

Data set [6] is described as follows: NuTide:701 first-in-human phase I study. It counts as in vivo. The conditions noted are these: human, in vivo. As to the method:
A Safety Study of NUC-7738 in Patients with Advanced Solid Tumours or Lymphoma, ClinicalTrials number: NCT03829254. Approved by Oxford C Ethics Committee ref 18/SC/0628.
This study is currently ongoing at three centers in the United Kingdom: Edinburgh, Newcastle, and Oxford. As of June 1, 2021, 28 patients with advanced cancers have been enrolled and received escalating doses of 14–900 mg/m^2 (intravenous infusion from 30–120 minutes) once weekly until dose-limiting toxicity or disease progression occurs. Intrapatient dose escalation ensures those starting at lower dose levels of NUC-7738 are continuously moved to higher doses once safety has been established. The most common cancers to be included are immunotherapy-resistant melanoma (n = 8), colorectal cancer (n = 3), and gastric and lung cancer (n = 2 each). […] A posttreatment biopsy was taken from a patient with melanoma and compared with their archived specimen collected prior to enrolling in the clinical trial. […] Transcriptional profiling of the specimens using RNA-seq identified more than 1,069 genes which were at least 2-fold differentially expressed after treatment with NUC-7738 (Fig. 6C and Supplementary Fig. S6A–C).

A short description of data set [7]: Beagle dog 4-week toxicology and toxicokinetics.
[8] abbreviates: all doses, both occasions and genders.

On to `Nc1ncnc2c1ncn2[C@@H]1O[C@H](CO)C[C@H]1O` [3′-dA, 3′-deoxyadenosine, reference compound], for which the IC50 with cancer cell lines turned out to be 138 µM; with Tera-1 it was 200 µM; in the data set on SK-OV3, 360 µM; in the data set with AGS it was 460 µM; in the data set with CAKI-1 it was 291 µM; in the data set on ACHN it was 393 µM. Besides, the IC50 with UO-31 is 385 µM; with A498 it was 479 µM; in the data set with HAP1 cells [5] (HAP1, 48 hours, MTT, mean (±SEM) of 4 biological replicates, read-out: IC50) it was 49.9 µM; in the data set on HAP1 cells [5] (HAP1, as stated in RNA-seq method, read-out: IC50 concentration used for RNA-seq), 46 µM; with NCI-786, 181 µM; with 501MEL, 137 µM. Further, the “apoptotic cell death, cleaved PARP-1” value in [1] is “induced apoptotic cell death”. In data set [2], the “resistance after NUDT2 deletion” value was “Specific resistance”. Moreover, the “potency upon inhibition of ADA, hENT1 or ADK” value in the data set with HAP1 cells [3] is “dependent on ADA, hENT1, and ADK”. The half-life in plasma in data set [4] was 1.6 min. The IC90 with HAP1 cells [5] (HAP1, 48 hours, MTT, mean (±SEM) of 4 biological replicates, read-out: IC90) was 151 µM; in the data set on HAP1 cells [5] (HAP1, as stated in RNA-seq method, read-out: IC90 concentration used for RNA-seq) it was 375 µM.
As to `Nc1ncnc2c1ncn2[C@@H]1O[C@H](COP(=O)(O)OP(=O)(O)OP(=O)(O)O)C[C@H]1O` [3′-dATP, 3′-dA-5′-triphosphate], in data set [6], the intracellular half-life result is “approximately 50 h”.
What is called Tmax is the time at which the peak concentration occurs. Turning to `O=c1[nH]cnc2c1ncn2[C@@H]1O[C@H](CO)C[C@H]1O` [3′-deoxyinosine], in data set [7] (setting [8]), the “mean ratio metabolite/parent, AUC 0-t” value amounted to 1.32 and the “mean ratio metabolite/parent, Cmax” value was determined as 0.42. Further, the Tmax in data set [7] (both, beagle, plasma, iv) is 15 min.
